Common to all, as to type: cell-based, human
The test system of experiment [1] is drug-resistant CHLA-90 neuroblastoma cancer cell line. In words: DIMSCAN cytotoxicity dose-response with fenretinide (Examples A, FIGS. 1, 7, 12). Particulars: at one or more doses, +96 hrs. The method, then: (§1) Cytotoxicity Assay: Cytotoxicity in cell lines was determined using a fluorescence-based assay employing digital imaging microscopy (DIMSCAN)(after Fragala, et al, Mol Cancer Ther, 6:886-897, 2007). DIMSCAN quantitates viable cells which selectively accumulate fluorescein diacetate and is capable of measuring cytotoxicity over a 4-5 log dynamic range by quantifying total fluorescence per well (which is proportional to viable, clonogenic cells) after eliminating background fluorescence using digital thresholding and eosin Y quenching. Briefly, cell lines were seeded into 96-well plates in 100 µL of complete culture medium (10-20% serum) per well. Cells were incubated overnight in 2%, 5% or 20% oxygen (room air) prior to addition of drugs in […] volumes of complete medium to various final drug concentrations in replicates of 12 wells per concentration. In assays employing D-threo-PPMP, PPMP was employed at a fixed, minimally-toxic, final concentration of 10 μM in each well. Control wells received ethanol (final concentration=0.12%-0.20%) in complete medium equivalent to the maximum final ethanol concentration of drug-treated wells. Plates were incubated at various oxygen concentrations to simulate physiological hypoxia (i.e., 2% oxygen=typical solid tumor oxygen levels; 5%=bone marrow oxygen levels for leukemias; 20% room air=supraphysiological oxygen for comparison with typical laboratory culture conditions). Plates were assayed at 3-4 days after initiating drug exposure depending on the growth properties of each cell line, to allow for maximum cell death and outgrowth of surviving cells. To measure cytotoxicity, FDA (stock solution of 1 mg/ml in DMSO) was added, in 50 µL of complete medium per well, to a final concentration of 10 µg/ml. The plates were incubated for an additional 15-30 minutes at 37 C and then 30 µL of eosin Y (0.5% in normal saline) was added per well. Total fluorescence of each well was then measured using digital imaging microscopy. […]

Experiment [2] concerns MOLT-4 ALL leukemia cell line. In words: DIMSCAN cytotoxicity dose-response with fenretinide, with or without D-threo-PPMP (Examples A, FIGS. 6, 24-26). The following applies: 2% oxygen, D-threo-PPMP fixed 10 uM, at most doses, +96 hrs. The method, then: (§2) Cytotoxicity Assay: Cytotoxicity in cell lines was determined using a fluorescence-based assay employing digital imaging microscopy (DIMSCAN)(after Fragala, et al, Mol Cancer Ther, 6:886-897, 2007). DIMSCAN quantitates viable cells which selectively accumulate fluorescein diacetate and is capable of measuring cytotoxicity over a 4-5 log dynamic range by quantifying total fluorescence per well (which is proportional to viable, clonogenic cells) after eliminating background fluorescence using digital thresholding and eosin Y quenching. Briefly, cell lines were seeded into 96-well plates in 100 µL of complete culture medium (10-20% serum) per well. Cells were incubated overnight in 2%, 5% or 20% oxygen (room air) prior to addition of drugs in […] volumes of complete medium to various final drug concentrations in replicates of 12 wells per concentration. In assays employing D-threo-PPMP, PPMP was employed at a fixed, minimally-toxic, final concentration of 10 μM in each well. Control wells received ethanol (final concentration=0.12%-0.20%) in complete medium equivalent to the maximum final ethanol concentration of drug-treated wells. Plates were incubated at various oxygen concentrations to simulate physiological hypoxia (i.e., 2% oxygen=typical solid tumor oxygen levels; 5%=bone marrow oxygen levels for leukemias; 20% room air=supraphysiological oxygen for comparison with typical laboratory culture conditions). Plates were assayed at 3-4 days after initiating drug exposure depending on the growth properties of each cell line, to allow for maximum cell death and outgrowth of surviving cells. To measure cytotoxicity, FDA (stock solution of 1 mg/ml in DMSO) was added, in 50 µL of complete medium per well, to a final concentration of 10 µg/ml. The plates were incubated for an additional 15-30 minutes at 37 C and then 30 µL of eosin Y (0.5% in normal saline) was added per well. Total fluorescence of each well was then measured using digital imaging microscopy.
(§3) FIGS. 1 to 26 illustrate the effect (Examples A1 through A26) of the claimed invention and were carried out using the procedures disclosed herein.

Experiment [3] relates to NCI-H-1792 lung adenocarcinoma cell line. In words: DIMSCAN cytotoxicity, fenretinide + L-threo-sphinganines 3:1 (Example B12). The following applies: 96 h. The method, then: (§4) Cytotoxicity Assay—Once again, cytotoxicity is determined using the DIMSCAN assay system (R. Proffitt et al., Cytometry 24, 204-213 (1996); T. Frgala et al., Mol Cancer Ther. 6:886-97, 2007). The system employs digital imaging microscopy to quantify viable cells, which selectively accumulate fluorescein diacetate to become brightly fluorescent. The system is capable of measuring cytotoxicity over a 4-5 log dynamic range by quenching the residual fluorescence of dead and dying cells with eosin Y and quantifying the total fluorescence of viable cells using digital thresholding. Measured fluorescence is directly proportionate to the number of viable cells. A comparison of the total fluorescence of a drug-treated cell population to the fluorescence of a similar number of untreated cells yields a survival fraction. In brief, 2000 to 10,000 cells/well (depending on size and growth rates) are replicate plated into 60 wells of a 96-well tissue culture plate in 0.1 mL of whole medium and allowed to attach overnight. Drug(s) are then added in 0.05 mL of whole medium to the final concentrations indicated. Drugs (fenretinide, and various chain length L-threo-sphinganines) were tested both as single agents and in a 3:1 ratio of fenretinide:sphinganine. C18-L-threo-sphinganine, or “safingol,” was also tested and results shown for reference. There are 12 wells treated per drug concentration. Twelve wells receive drug vehicle-only to the appropriate final concentration and serve as controls for the plate. Cells are incubated for 96 hours at 37° C. in ambient air with 5% CO2. Fluorescein diacetate is then added to each well in 0.05 mL media to a final concentration of 8 microgram/mL. Cells are incubated for a further 15 minutes at 37° C. and 0.03 mL of 0.5% eosin Y is added to each well. Total fluorescence of viable cells is then measured by digital imaging microscopy. Results were graphed as the ratio of the fluoresecence of drug-treated wells to non-drug treated control wells (i.e., Survival Fraction). All tests were performed at least twice. Representative results are shown.
(§5) The Combination Index (CI) is a term to describe mathematical modeling of the pharmacologic effects on cytotoxicity (cell death) of two drugs in combination based. Cytotoxic “synergy” is defined as a cell death affect which is greater than would be expected from a simple product of the single agent cytotoxicities alone (i.e. an “additive” effect). By Chou-Talalay analysis, a CI<0.9 on a Fraction Affected (“Fa”, i.e. fraction of cells killed) indicates synergy, with smaller numbers indicating greater synergy; a CI of 0.9-1.1 signifies an additive or near-additive effect; and a CI>1.1 means the drug combination is antagonistic.
Fenretinide and L-threo-sphinganines tested in human lung adenocarcinoma (lung cancer) cell line, NCI-H-1792.

In experiment [4] the test system is CHLA-90 pediatric neuroblastoma cell line. Kind of experiment: DIMSCAN cytotoxicity, fenretinide + L-threo-sphinganines 3:1 (Example B21). The method, then:
as §4, §5
Fenretinide and L-threo-sphinganines tested in human pediatric neuroblastoma (a nerve-related, solid tumor cancer) cell line, CHLA-90.

For experiment [5], the system named is GBM2 glioblastoma brain cancer cell line. Kind of experiment: DIMSCAN cytotoxicity dose-response with fenretinide, with or without D-threo-PPMP (Examples A, FIGS. 3, 9, 14, 18-20). The following applies: +96 hrs; for C.I. of D-threo-PPMP with fenretinide+L-threo-sphinganine (three drug combination): 2% oxygen, D-threo-PPMP fixed 10 uM, at most doses; for C.I. (Combination Index) with fenretinide: at one or more doses. The method, then:
as §2, §3

Experiment [6] concerns LNCaP prostate adenocarcinoma cell line. In words: DIMSCAN cytotoxicity, fenretinide + L-threo-sphinganines 3:1 (Example B16). The following applies: LNCaP.FGC. The method, then: as §4, §5
Fenretinide and L-threo-sphinganines tested in human prostate adenocarcinoma (prostate cancer) cell line, LNCaP.

The subject of experiment [7] is COG-LL-317 Acute Lymphoblastic Leukemia (ALL) cancer cell line. In words: DIMSCAN cytotoxicity dose-response with fenretinide (Examples A, FIGS. 5, 11, 17). Particulars: 5% oxygen, at one or more doses, +96 hrs. The method, then: as §1
Setting [8] is: 4-HPR 1.5 μM + L-threo-sphinganine 0.5 μM.
Setting [9] is: 4-HPR 3 μM + L-threo-sphinganine 1 μM.
The mark [10] stands for this setting: 4-HPR 6 μM + L-threo-sphinganine 2 μM.
Setting [11] is: 4-HPR 9 μM + L-threo-sphinganine 3 μM.
Where [12] appears, read: 4-HPR 12 μM + L-threo-sphinganine 4 μM.

Molecules are shown by their SMILES.

With `CCCCCCCCCCCCCCCC[C@H](O)[C@@H](N)CO` [C19, (2S,3S)-2-amino-1,3-nonadecanediol], the “C.I. (Combination Index) with fenretinide” value in experiment [1], in experiment [5] and in experiment [7] was less than 1 throughout. For the same compound, the “C.I. of D-threo-PPMP with fenretinide+L-threo-sphinganine (three drug combination)” value in experiment [2] and in experiment [5] was less than 1 throughout. Also, the “CI (Combination Index)” value in experiment [3] (setting [8]) is on record as 1.1; in experiment [3] (setting [9]) it was 1.1; in experiment [3] (setting [10]) it was 1.2; in experiment [3] (setting [11]), 0.9. Also, the “Fa (fraction affected)” value was 0.138 in experiment [3] (setting [8]), 0.736 in experiment [3] (setting [9]), 0.965 in experiment [3] (setting [10]) and 0.993 in experiment [3] (setting [11]). Also, the CI is recorded as 0.4 in experiment [4] (setting [9]); 0.1 in experiment [4] (setting [10]); 0.1 in experiment [4] (setting [11]); 1.0 in experiment [6] (setting [8]); 0.5 in experiment [6] (setting [9]); 0.5 in experiment [6] (setting [10]). For the same compound, the CI in experiment [6] (setting [11]) came to 0.2. The Fa is 0.9960 in experiment [4] (setting [9]); 0.9993 in experiment [4] (setting [10]); 1 in experiment [4] (setting [11]); 1.0000 in experiment [4] (setting [12]); 0.697 in experiment [6] (setting [8]); 0.980 in experiment [6] (setting [9]). Further, the figures for the Fa in experiment [6] (setting [10]) and in experiment [6] (setting [11]) were 0.999 and 1.000, respectively.
For `CCCCCCCCCCCCCCCCC[C@H](O)[C@@H](N)CO` [C20, (2S,3S)-2-amino-1,3-icosanediol], the “C.I. (Combination Index) with fenretinide” value in experiment [1], in experiment [5] and in experiment [7] was less than 1 in each case. The “C.I. of D-threo-PPMP with fenretinide+L-threo-sphinganine (three drug combination)” value in experiment [2] and in experiment [5] was less than 1 in each case. Moreover, the “CI (Combination Index)” value in experiment [3] (setting [8]) came out at 0.9; in experiment [3] (setting [9]) it was 0.7; in experiment [3] (setting [10]) it was 0.7; in experiment [3] (setting [11]), 0.5. Moreover, the “Fa (fraction affected)” value was 0.287 in experiment [3] (setting [8]), 0.852 in experiment [3] (setting [9]), 0.972 in experiment [3] (setting [10]) and 0.998 in experiment [3] (setting [11]). Further, the CI in experiment [4] (setting [9]) is on record as 0.5; in experiment [4] (setting [10]), 0.7; in experiment [4] (setting [11]) it was 1.1; in experiment [4] (setting [12]), 1.5; in experiment [6] (setting [8]) it was 0.7; in experiment [6] (setting [9]), 0.4. Moreover, the CI in experiment [6] (setting [10]) is listed as 0.7; in experiment [6] (setting [11]), 0.8. Also, the Fa is listed as 0.996 in experiment [4] (setting [9]); 0.999 in experiment [4] (setting [10]); 0.999 in experiment [4] (setting [11]); 0.9999 in experiment [4] (setting [12]); 0.812 in experiment [6] (setting [8]); 0.987 in experiment [6] (setting [9]). For the same compound, the results for the Fa in experiment [6] (setting [10]) and in experiment [6] (setting [11]) were 0.993 and 0.999, respectively.
In the case of `CCCCCCCCC[C@H](O)[C@@H](N)CO` [C12], the “CI (Combination Index)” value in experiment [3] (setting [8]) was determined as 1.0; in experiment [3] (setting [9]) it was 1.3; in experiment [3] (setting [10]) it was 1.4; in experiment [3] (setting [11]), 1.8. Also, the “Fa (fraction affected)” value amounted to 0.217 in experiment [3] (setting [8]), 0.642 in experiment [3] (setting [9]), 0.951 in experiment [3] (setting [10]) and 0.975 in experiment [3] (setting [11]). Besides, the CI in experiment [6] (setting [8]) is recorded as 0.5; in experiment [6] (setting [9]), 0.3; in experiment [6] (setting [10]) it was 0.4; in experiment [6] (setting [11]), 0.4. Besides, the Fa came out at 0.870 in experiment [6] (setting [8]), 0.982 in experiment [6] (setting [9]), 0.996 in experiment [6] (setting [10]) and 0.999 in experiment [6] (setting [11]).
Regarding `CCCCCCCCCCCCCCC[C@H](O)[C@@H](N)CO` [C18, (2S,3S)-2-amino-1,3-octadecanediol, reference compound], the “CI (Combination Index)” value in experiment [3] (setting [8]) turned out to be 1.2; in experiment [3] (setting [9]) it was 0.8; in experiment [3] (setting [10]), 0.6; in experiment [3] (setting [11]), 0.4. Besides, the “Fa (fraction affected)” value amounted to 0.243 in experiment [3] (setting [8]), 0.756 in experiment [3] (setting [9]), 0.983 in experiment [3] (setting [10]) and 0.999 in experiment [3] (setting [11]). Moreover, the CI turned out to be 0.5 in experiment [4] (setting [9]); 0.3 in experiment [4] (setting [10]); 0.4 in experiment [4] (setting [11]); 0.9 in experiment [6] (setting [8]); 0.3 in experiment [6] (setting [9]); 0.1 in experiment [6] (setting [10]). The CI in experiment [6] (setting [11]) worked out at 0.1. Moreover, the Fa in experiment [4] (setting [9]) is given as 0.996; in experiment [4] (setting [10]) it was 0.9993; in experiment [4] (setting [11]), 0.9999; in experiment [4] (setting [12]), 1; in experiment [6] (setting [8]), 0.752; in experiment [6] (setting [9]) it was 0.971. Further, the Fa was found to be 0.998 in experiment [6] (setting [10]) and 0.999 in experiment [6] (setting [11]).
